In US20260115144A1, “THERAPEUTIC NANOPARTICLES ENCAPSULATING TERPENOIDS AND/OR CANNABINOIDS” (priority 2018, published 2026):

Tests used:
[1] = Loss of myrcene during lyophilization for 24 h (weighing); assay type: physicochemical; conditions: lyophilized for 24 h; starting weight 8 or 48 mg
Description: To investigate whether myrcene is lost during lyophilization, 3 samples of either free myrcene, a mixture of myrcene and water, or a mixture of myrcene, water and PLGA were prepared in duplicate as illustrated in Table 16. Samples were lyophilized for 24 h. The vials containing the samples were weighed before and after lyophilization to calculate the weight of the dried sample.

TRPV1 receptors = molecular target: T1, TRPV1 receptors (Rattus norvegicus, UniProt O35433); assay: Calcium signaling assay (Fluo-4) in HEK TRPV1 cells; assay type: cell-based; conditions: 40 μg/ml, 1 h
T1 construct: expressed in transfected cells; host or cells: HEK TRPV1 cells (Helen Turner lab, Chaminade University of Honolulu), kept under geneticin
Description: HEK TRPV1 cells were provided by the Helen Turner lab at Chaminade University of Honolulu and maintained in MEM essential medium supplemented with 10% FBS, 50 units/ml-50 μg/ml Penicillin-Streptomycin, and 0.6 mg/ml geneticin.
HEK TRPV1 cells were harvested with trypsin, deactivated with media, and counted. Cells were centrifuged at 1000 rpm, for 5 min, at room temperature. Cells were washed twice with 1 mM Ca Assay Buffer (Na Ringers [140 mM NaCl, 2.8 mM KCl, 2 mM MgCl2, 11 mM glucose, 10 mM HEPES], 2 mM Probenecid, 1 mM CaCl2); pH 7.4), and collected by centrifugation at 1000 rpm, for 5 min, at room temperature. Cells were resuspended in 1 μM Fluo-4 (1 μl of 5 mM Fluo-4, mixed with 1 μl of 20% Pluronic F-127 in DMSO, then 5 ml of 1 mM Ca Assay Buffer was added and the mixture incubated at 37° C. for 10 min in the dark), and incubated for 30 min at 37° C. in the dark. Cells were then washed twice with 1 mM Ca assay buffer, then resuspended in the assay buffer and pipetted to opaque-walled 96-well plates at a density of 150,000 cells/180 μl/well. Fluorescence was measured using a plate reader (Synergy HTX, BioTek, USA), at an excitation wavelength of 485 nm and an emission wavelength of 528 nm. Once a baseline was established (3 measurements), 20 μl of the stimulant (free terpenoids, terpenoids-loaded NPs, and controls) solution was added to each well and measurement was continued for 1 h with one read every 40 seconds.
All solutions were prepared in 1 mM Ca Assay Buffer. Free terpenoids were first dissolved in DMSO, then a specific volume was diluted with the assay buffer to produce the required concentration. […]
A calcium signaling assay was utilized to evaluate the ion influx into HEK TRPV1 cells. Cells were dispersed in 1 mM calcium assay buffer and the intracellular calcium levels were measured using a plate reader in the presence of Fluo-4, as the fluorophore. […] Fluorescence changes in response to the free terpenoids, encapsulated terpenoids, and combinations of free and encapsulated terpenoids were detected and compared.

TRPV1 = TRPV1 (Homo sapiens, UniProt Q8NER1); conditions: described in PCT/US2018/033956; cited from earlier work
[2] = cited from earlier work

T1 sequence (O35433 whole entry): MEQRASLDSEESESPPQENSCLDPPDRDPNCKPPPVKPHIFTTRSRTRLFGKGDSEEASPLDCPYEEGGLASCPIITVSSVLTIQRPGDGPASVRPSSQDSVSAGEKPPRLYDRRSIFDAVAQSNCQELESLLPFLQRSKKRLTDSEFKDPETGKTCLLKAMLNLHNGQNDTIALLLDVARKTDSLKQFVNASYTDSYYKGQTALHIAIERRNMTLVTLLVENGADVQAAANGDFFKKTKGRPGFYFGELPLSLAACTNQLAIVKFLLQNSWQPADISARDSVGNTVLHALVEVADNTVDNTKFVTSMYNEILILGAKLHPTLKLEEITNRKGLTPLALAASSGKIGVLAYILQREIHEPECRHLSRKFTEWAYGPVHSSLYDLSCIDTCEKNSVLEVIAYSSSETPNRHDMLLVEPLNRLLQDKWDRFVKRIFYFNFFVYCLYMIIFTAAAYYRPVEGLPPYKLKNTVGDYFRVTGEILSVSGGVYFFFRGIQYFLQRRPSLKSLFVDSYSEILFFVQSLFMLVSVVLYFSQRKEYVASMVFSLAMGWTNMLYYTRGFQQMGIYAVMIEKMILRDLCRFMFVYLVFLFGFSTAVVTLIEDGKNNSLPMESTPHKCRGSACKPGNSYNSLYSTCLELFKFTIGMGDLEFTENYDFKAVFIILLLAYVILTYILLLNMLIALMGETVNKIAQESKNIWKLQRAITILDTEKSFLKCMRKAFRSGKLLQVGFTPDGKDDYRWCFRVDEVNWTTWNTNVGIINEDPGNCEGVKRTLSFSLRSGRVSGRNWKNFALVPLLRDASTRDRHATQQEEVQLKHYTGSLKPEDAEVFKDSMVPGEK
Sequence of TRPV1 (Q8NER1 whole entry, species assumed): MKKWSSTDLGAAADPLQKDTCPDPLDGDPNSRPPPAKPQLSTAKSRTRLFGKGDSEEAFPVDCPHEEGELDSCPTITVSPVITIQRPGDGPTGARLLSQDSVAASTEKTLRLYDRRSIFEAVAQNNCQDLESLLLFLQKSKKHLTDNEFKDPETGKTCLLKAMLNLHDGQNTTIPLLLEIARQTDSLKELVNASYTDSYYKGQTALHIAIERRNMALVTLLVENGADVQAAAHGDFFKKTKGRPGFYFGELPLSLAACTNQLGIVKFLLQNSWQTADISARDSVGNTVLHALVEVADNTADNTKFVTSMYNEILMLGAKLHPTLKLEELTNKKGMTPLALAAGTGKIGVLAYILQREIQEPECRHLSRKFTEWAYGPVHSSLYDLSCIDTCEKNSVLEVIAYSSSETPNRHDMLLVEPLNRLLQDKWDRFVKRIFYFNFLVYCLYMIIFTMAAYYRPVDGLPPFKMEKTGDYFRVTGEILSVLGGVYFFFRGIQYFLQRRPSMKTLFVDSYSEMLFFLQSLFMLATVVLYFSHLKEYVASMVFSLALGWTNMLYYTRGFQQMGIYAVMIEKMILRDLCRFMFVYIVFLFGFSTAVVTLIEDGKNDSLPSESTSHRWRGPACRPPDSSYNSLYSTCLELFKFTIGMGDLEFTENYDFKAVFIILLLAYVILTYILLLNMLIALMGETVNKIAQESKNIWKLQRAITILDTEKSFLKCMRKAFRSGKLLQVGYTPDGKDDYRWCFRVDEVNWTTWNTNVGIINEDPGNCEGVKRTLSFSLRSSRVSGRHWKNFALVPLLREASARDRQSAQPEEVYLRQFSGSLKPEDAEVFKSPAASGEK

Row | Structure (SMILES) | Weight after lyophilization [1] [mg] | Calcium response (fluorescence change), non-encapsulated individual terpenoids (TRPV1 receptors) | TRPV1 agonist activity (TRPV1) | Vapor pressure ([2]; at 25° C.) [mm Hg] | Solubility in water [2]
1 | C=CC(=C)CCC=C(C)C [Formula F42] | 0.88 |  |  |  | 
2 | C=CC(=C)CCC=C(C)C [myrcene, 7-methyl-3-methylideneocta-1,6-diene] |  | most intense response | TRPV1 agonist that causes TRPV1 desensitization after prolonged exposure | 2.09 | not soluble in water
3 | C=CC(C)(O)CCC=C(C)CCC=C(C)C (stereo not shown) [nerolidol, 3,7,11-Trimethyl-1,6,10-dodecatrien-3-ol] |  | induced a calcium response |  |  | 
4 | C=C1CC/C=C(\C)CC[C@@H]2[C@@H]1CC2(C)C [β-caryophyllene, (1R,4E,9S)-4,11,11-Trimethyl-8-methylidenebicyclo[7.2.0]undec-4-ene] |  | lowest calcium responses |  |  | 
